In brackets after ≈: the same amount, converted by molar mass.
Columns and labels:
[1] = system: promastigotes and the amastigotes forms of Leishmania (L.) species; design: method as in PMID 24433962, doi:10.1016/j.molstruc.2019.03.032, PMID 34311084, PMID 36444862; settings: Figure 2; cited from earlier work
LdTopIB = system: LdTopIB; design: method as in PMID 24433962, doi:10.1016/j.molstruc.2019.03.032, PMID 34311084, PMID 36444862; settings: Figure 2; cited from earlier work

SMILES | melting point [°C] | IC50 [1] [µM] | IC50 (LdTopIB) [µM] | EC50 [1] [µg/mL]
O=C(c1ccc(F)cc1)C1C(c2ccc(Cl)cc2Cl)C2CSCN2C12C(=O)Nc1ccccc12 (centres unmarked) [compound 17] | 103 to 105 | 39.8 ± 0.43 |  | 
COC(=O)C1CC2CCCN2C12C(=O)N(Cc1ccccc1)c1ccccc12 (centres unmarked) [compound 15] | 138 to 140 |  | 3.29 | 
O=C1NC(=O)C2(CC(c3ccccc3)N(Cc3ccccc3)C(c3ccccc3)C2)N1c1ccccc1 (centres unmarked) [compound 19] | 142 to 144 | 0.89 |  | 
Cc1ccc(C(CC(=O)c2ccccc2)C2C(=O)Nc3ccccc32)cc1 (centres unmarked) [compound 16] | 112 to 114 |  |  | 16.2 (≈ 45.6 µM)

Reference: publication PMC10302753, “Natural-Product-Inspired Microwave-Assisted Synthesis of Novel Spirooxindoles as Antileishmanial Agents: Synthesis, Stereochemical Assignment, Bioevaluation, SAR, and Molecular Docking Studies” (Molecules, 2023)
